Values quoted from earlier work as cited in US20120259389A1, “TREATMENT OF POSTPRANDIAL HYPERGLYCEMIA BY GASTRIC ELECTRICAL STIMULATION” (priority 2009, published 2012).

Tested on: ZDF rats
Settings: Type II diabetic ZDF rats; 300 mg/kg/day for 28 days; reported by Uhles et al. 2009

## CN(C)C(=N)N=C(N)N [Metformin]
  reduction in mean change in blood glucose AUC: 21%
